Experimental data as given in patent publication US20240041878A1, “APELIN RECEPTOR MODULATORS FOR TREATMENT OF A DISORDER OR DISEASE ASSOCIATED WITH BBB PERMEABILITY” (BioAge Labs, Inc., priority 2022, published 2024).

What was measured:
26 month-old mice = experiment: Quantikine ELISAs for mouse CXCL1 and CXCL13 in plasma of aged mice; type: in vivo; details: 50 mg/kg BID P.O. one week, p<0.05
Procedure: The mice were handled in accordance with principles and guidelines established by the “Guide for the Care and Use of Laboratory Animals” and overseen by the BioAge Lab's institutional animal care and use committee (IACUC). Mice were housed conventionally in a constant temperature (20-22° C.) and humidity (40%-60%) animal room with a 12/12 h light/dark cycle and free access to food and water. 26 month-old mice were randomized based on the body weight and body condition scores to two groups (vehicle or BGE-105, n=8). 4 month-old female mice were used as an additional control group (vehicle, n=4). Mice were administered P.O. vehicle or BGE-105 at 50 mg/kg (BID) for one week. After completion of dosing, blood samples were collected via retro-orbital bleeding under isoflurane anesthesia into K2-EDTA tubes to prevent coagulation. Mice were euthanized via transcardiac perfusion under isoflurane anesthesia. […]
For quantitative analysis, plasma samples were assessed with Quantikine® enzyme-linked immunosorbent assays (ELISAs) for mouse CXCL1 and CXCL13 (R&D Systems) according to manufacturer's instructions. Optical density of the completed ELISA was imaged using a SpectraMax iD5 (Molecular Devices), sample concentrations were calculated compared to a standard curve, and relative change with age+/−BGE-105 treatment was calculated with young mouse plasma serving as the normalization.

[1] = tested on: apelin receptor (APJ) signaling in astrocytes; experiment: Western blot of APJ, p-AKT and t-AKT in astrocytes; type: cell-based, mouse
Procedure: To stimulate astrocytes into a reactive state found in aging and neurodegenerative diseases per previous publications (Liddelow et al., 2017; Barbar et al., 2020), a combination of the cytokines TNF-α and IL-1α, and complement factor C1q, were added at 30 ng/mL, 3 ng/mL, and 400 ng/mL, respectively, into astrocyte culture media to make ‘reactive astrocyte cocktail’ (RAC) media. Astrocytes were cultured in RAC media for 24 hours, with or without various concentrations of BGE-105 (10 nM, 50 nM, 250 nM final concentration), (Pyr^1)-Apelin-13 (50 nM; Bachem, Cat. #4029110), BAY-11-7082 (50 μM; Abcam, Cat. #ab141228) or equal volume of vehicle (0.01% DMSO in PBS) (hereafter referred to as ‘RAC treatment’). Cells in Groups 3-6 were treated with RAC for 24 hours, with or without the test compounds (n=4 per group). • Group 1: Control [CON] • Group 2: CON+BGE-105 (50 nM) [CON+105] • Group 3: Reactive control treated with RAC only [RAC] • Group 4: RAC+BGE-105 (50 nM) [RAC+105] • Group 5: RAC+Pyrm-Apelin-13 (50 nM) • Group 6: RAC+BAY-11-7082 (NF-κB inhibitor; 50 μM) [RAC+BAY]
Mice were handled in accordance with principles and guidelines established by the “Guide for the Care and Use of Laboratory Animals” and overseen by the BioAge Lab's Institutional Animal Care and Use Committee (IACUC). Mouse primary astrocytes were isolated and cultured in 0.01% poly-L-lysine coated 6- or 12-well tissue culture plates at 200,000 or 120,000 cells/well, respectively, with astrocyte growth media as previously described in (Lundquist et al. 2022. Knockdown of Astrocytic Monocarboxylate Transporter 4 in the Motor Cortex Leads to Loss of Dendritic Spines and a Deficit in Motor Learning. Mol Neurobiol 59, 1002-1017). […]
For analysis of astrocyte protein expression, cells were washed after RAC treatment with PBS and lysed with Neuronal Protein Extraction Reagent (Thermo Scientific, Cat. #87792), centrifuged to pellet debris, and supernatant was transferred to a new tube. Total protein concentration was measured by BCA protein assay (Thermo Scientific, Cat. #PI23227).

apelin receptor = biological target: T1, apelin receptor (Homo sapiens, UniProt P35414); details: Ason et al., JCI Insight 2020; cited from earlier work
T1 sequence (P35414 1-380): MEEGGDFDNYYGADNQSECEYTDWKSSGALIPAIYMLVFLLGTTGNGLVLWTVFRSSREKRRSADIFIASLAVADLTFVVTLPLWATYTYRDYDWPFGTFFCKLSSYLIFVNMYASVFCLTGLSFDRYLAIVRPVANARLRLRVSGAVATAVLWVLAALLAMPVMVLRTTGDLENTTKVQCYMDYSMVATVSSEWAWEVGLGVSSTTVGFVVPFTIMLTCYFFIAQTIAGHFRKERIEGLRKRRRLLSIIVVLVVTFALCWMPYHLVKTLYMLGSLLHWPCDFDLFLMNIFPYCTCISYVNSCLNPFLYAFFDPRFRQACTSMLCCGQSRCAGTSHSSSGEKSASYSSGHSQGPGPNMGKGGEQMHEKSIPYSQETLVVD

[2] = RAC+BGE-105 [50 nM] versus CON and RAC

COc1cccc(OC)c1-n1c(NS(=O)(=O)[C@@H](C)[C@H](C)c2ncc(C)cn2)nnc1-c1cncc(C)c1 [BGE-105, (2S,3R)—N-(4-(2,6-dimethoxyphenyl)-5-(5-methyl-3-pyridinyl)-4H-1,2,4-triazol-3-yl)-3-(5-methyl-2-pyrimidinyl)-2-butanesulfonamide]
reduction of CXCL1 concentrations in plasma (26 month-old mice): 35% | reduction of CXCL13 concentrations in plasma (26 month-old mice): 26% | increase of p-AKT expression level, as compared to t-AKT, normalized with β-actin ([1]; RAC+BGE-105 [50 nM]): about 2 folds | APJ protein expression normalized with β-actin [1, 2]: No significant fold change | t-AKT expression [1, 2]: remained comparable | activation of the apelin receptor (apelin receptor): known to activate
